IC50 and MTAP intact/deleted ratio data for 13 compounds are collected here from patent US11999727B2 (Tango Therapeutics, Inc., priority 2020, dated 2024).

SMILES strings stand for the structures. Read-outs that look alike come from different tables or passages of the source.

The subject of assay [1] is HAP1 MTAP-deleted cell line. In words: Viability assay, MTAP-deleted cell line. In kind it is cell-based. The note with it: Homo sapiens. The source says:
Table 1 additionally indicates IC50 values in a viability assay for the MTAP-deleted cell line (column 10), indicating the effect of treatment with compound on cell survival.

Assay [2] relates to HAP1 MTAP-deleted cell line. In words: SDMA in-cell western assay, HAP1 MTAP-deleted. In kind it is cell-based. The note with it: for IC50: Homo sapiens; for MTAP intact/deleted ratio: IC50 ratio HAP1 MTAP-intact vs HAP1 MTAP-deleted, SDMA in-cell western. Summed up:
(§1)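 Isogenic HAP1 pair: the MTAP-intact line expresses endogenous MTAP, and the deleted line is MTAP-null. Symmetric dimethylarginine was detected by in-cell western and IC50 values derived for each line.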

The target of assay [3] is T1, PRMT5 (Homo sapiens, UniProt O14744).
T1 construct: purchased Viva (custom protein)
T1 sequence (O14744 whole entry): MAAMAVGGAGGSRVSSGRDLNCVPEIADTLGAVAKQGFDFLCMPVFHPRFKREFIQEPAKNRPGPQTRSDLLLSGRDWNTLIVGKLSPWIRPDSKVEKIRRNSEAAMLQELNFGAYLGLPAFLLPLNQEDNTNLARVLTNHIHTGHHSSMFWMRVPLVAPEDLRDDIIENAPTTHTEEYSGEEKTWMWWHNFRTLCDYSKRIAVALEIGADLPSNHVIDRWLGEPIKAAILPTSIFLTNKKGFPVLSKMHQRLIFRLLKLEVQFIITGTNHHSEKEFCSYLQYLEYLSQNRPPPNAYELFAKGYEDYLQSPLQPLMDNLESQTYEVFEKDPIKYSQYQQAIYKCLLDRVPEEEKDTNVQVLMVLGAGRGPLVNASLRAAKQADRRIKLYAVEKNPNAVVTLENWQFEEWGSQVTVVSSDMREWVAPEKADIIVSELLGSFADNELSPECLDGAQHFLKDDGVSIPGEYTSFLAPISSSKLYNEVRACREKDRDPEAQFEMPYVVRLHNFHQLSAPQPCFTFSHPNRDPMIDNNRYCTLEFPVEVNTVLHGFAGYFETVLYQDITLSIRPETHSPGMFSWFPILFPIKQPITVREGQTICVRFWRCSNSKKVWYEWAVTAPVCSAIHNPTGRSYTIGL
T1 sequence (Q9BQA1 whole entry partner): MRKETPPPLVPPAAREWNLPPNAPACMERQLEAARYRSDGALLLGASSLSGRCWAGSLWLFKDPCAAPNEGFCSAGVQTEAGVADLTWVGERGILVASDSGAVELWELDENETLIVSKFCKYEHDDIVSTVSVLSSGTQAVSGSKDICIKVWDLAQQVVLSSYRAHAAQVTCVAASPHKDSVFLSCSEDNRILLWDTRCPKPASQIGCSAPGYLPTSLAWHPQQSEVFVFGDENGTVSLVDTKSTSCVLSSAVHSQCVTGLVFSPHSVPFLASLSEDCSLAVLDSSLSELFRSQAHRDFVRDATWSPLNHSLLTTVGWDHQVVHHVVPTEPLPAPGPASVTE
Put plainly: PRMT5 biochemical IC50 assay with no cofactor. The source says: Table 1 indicates IC50 values (μM) against PRMT5 for exemplary compounds in the presence of SAM as cofactor, with no cofactor, and with MTA as cofactor, respectively (columns 4-6). […] Ki values can be calculated from the IC50 values as described in the Examples section. As detailed in the Examples section, for the assay performed in the presence of SAM, IC50=Ki×1.5 (Ki=IC50/1.5).

Assay [4] concerns the target T1, PRMT5. In words: PRMT5 biochemical IC50 assay with MTA as cofactor.
In assay [5] the test system is HAP1 MTAP-intact cell line. Put plainly: SDMA in-cell western assay, HAP1 MTAP-intact. It is filed as cell-based. The note with it: Homo sapiens. A digest of the protocol: as §1
Assay [6] has as its target T1, PRMT5. Put plainly: PRMT5 biochemical IC50 assay with SAM as cofactor.
Where [7] appears, read: HAP1, viability assay, MTAP-deleted cell line, read-out: HAP1 MTAP deleted viability.
Setting [8] is: HAP1, SDMA in-cell western, HAP1 MTAP-deleted, read-out: HAP1 MTAP deleted IC50.
Where [9] appears, read: PRMT5, no cofactor, read-out: No Cofactor/rel IC50.
The mark [10] stands for this setting: PRMT5, MTA as cofactor, read-out: MTA IC50.
Where [11] appears, read: HAP1, SDMA in-cell western, HAP1 MTAP-intact, read-out: MTAP HAP1 intact IC50.
Setting [12] is: PRMT5, SAM as cofactor, read-out: SAM IC50.

Turning to `CCc1cc(NC(=O)C(=O)N2C[C@@H](C)CC[C@@H]2c2ccc3sc(C4(C)CCN(C)CC4)nc3c2)cnc1N` [Compound 1171, N-(6-amino-5-ethylpyridin-3-yl)-2-((2R,5S)-2-(2-(1,4-dimethylpiperidin-4-yl)benzo[d]thiazol-5-yl)-5-methylpiperidin-1-yl)-2-oxoacetamide], the IC50 in assay [1] (HAP1, read-out: HAP1 MTAP deleted viability) is under 1000 nM; in assay [2] (HAP1, read-out: HAP1 MTAP deleted IC50), under 100 nM; against PRMT5 [3] (No Cofactor/rel IC50, PRMT5, no cofactor) it was under 50 nM; on PRMT5 [4] (MTA IC50, PRMT5, MTA as cofactor), under 50 nM; in assay [5] (HAP1, read-out: MTAP HAP1 intact IC50), under 100 nM; against PRMT5 [6] (SAM IC50, PRMT5, SAM as cofactor) it was under 50 nM. Moreover, the MTAP intact/deleted ratio result in assay [2] is listed as “A (an IC50 ratio greater than or equal to 10 fold)”.
As to `CCc1cc(NC(=O)C(=O)N2C[C@@H](C)CC[C@@H]2c2ccc3sc(C4CCN(CCF)CC4)nc3c2)cnc1N` [Compound 1174, N-(6-amino-5-ethylpyridin-3-yl)-2-((2R,5S)-2-(2-(1-(2-fluoroethyl)piperidin-4-yl)benzo[d]thiazol-5-yl)-5-methylpiperidin-1-yl)-2-oxoacetamide], the IC50 was under 1000 nM in assay [1] (setting [7]); under 100 nM in assay [2] (setting [8]); under 50 nM at PRMT5 [3] (setting [9]); under 50 nM at PRMT5 [4] (setting [10]); under 100 nM in assay [5] (setting [11]); under 50 nM on PRMT5 [6] (setting [12]). In addition, in assay [2], the MTAP intact/deleted ratio result was “A (an IC50 ratio greater than or equal to 10 fold)”.
On to `CCc1cc(NC(=O)C(=O)N2C[C@@H](C)CC[C@@H]2c2cccc(OCCN(C)C)c2)cnc1N` [Compound 1175, N-(6-amino-5-ethylpyridin-3-yl)-2-((2R,5S)-2-(3-(2-(dimethylamino)ethoxy)phenyl)-5-methylpiperidin-1-yl)-2-oxoacetamide], for which the IC50 in assay [1] (setting [7]) is under 1000 nM; in assay [2] (setting [8]), under 100 nM; on PRMT5 [3] (setting [9]), under 50 nM; at PRMT5 [4] (setting [10]), under 50 nM; in assay [5] (setting [11]), 100 to 1000 nM; on PRMT5 [6] (setting [12]), under 50 nM. Further, the MTAP intact/deleted ratio entry in assay [2] is reported as “A (an IC50 ratio greater than or equal to 10 fold)”.
Turning to `CCc1cc(NC(=O)C(=O)N2C[C@@H](C)CC[C@@H]2c2cccc(OC[C@@H]3CCN(C)C3)c2)cnc1N` [Compound 1178, N-(6-amino-5-ethylpyridin-3-yl)-2-((2R,5S)-5-methyl-2-(3-(((R)-1-methylpyrrolidin-3-yl)methoxy)phenyl)piperidin-1-yl)-2-oxoacetamide], the IC50 is under 1000 nM in assay [1] (setting [7]); under 100 nM in assay [2] (setting [8]); under 50 nM on PRMT5 [3] (setting [9]); under 50 nM on PRMT5 [4] (setting [10]); under 100 nM in assay [5] (setting [11]); under 50 nM at PRMT5 [6] (setting [12]). In addition, the MTAP intact/deleted ratio entry in assay [2] is on record as “A (an IC50 ratio greater than or equal to 10 fold)”.
As to `CCc1cc(NC(=O)C(=O)N2C[C@@H](C)CC[C@@H]2c2cccc(OC[C@H]3CCN(C)C3)c2)cnc1N` [Compound 1179, N-(6-amino-5-ethylpyridin-3-yl)-2-((2R,5S)-5-methyl-2-(3-(((S)-1-methylpyrrolidin-3-yl)methoxy)phenyl)piperidin-1-yl)-2-oxoacetamide], the IC50 is under 1000 nM in assay [1] (setting [7]); under 100 nM in assay [2] (setting [8]); under 50 nM at PRMT5 [3] (setting [9]); under 50 nM at PRMT5 [4] (setting [10]); under 100 nM in assay [5] (setting [11]); under 50 nM at PRMT5 [6] (setting [12]). The MTAP intact/deleted ratio entry in assay [2] is given as “A (an IC50 ratio greater than or equal to 10 fold)”.
Consider `Cc1cc(NC(=O)C(=O)N2C[C@@H](C)CC[C@@H]2c2ccc3sc(C4CCN(C5CC5)CC4)nc3c2)cnc1N` [Compound 1181, N-(6-amino-5-methylpyridin-3-yl)-2-((2R,5S)-2-(2-(1-cyclopropylpiperidin-4-yl)benzo[d]thiazol-5-yl)-5-methylpiperidin-1-yl)-2-oxoacetamide], for which the IC50 in assay [1] (setting [7]) is under 1000 nM; in assay [2] (setting [8]), under 100 nM; on PRMT5 [3] (setting [9]), under 50 nM; on PRMT5 [4] (setting [10]) it was under 50 nM; in assay [5] (setting [11]) it was under 100 nM; at PRMT5 [6] (setting [12]) it was under 50 nM. In assay [2], the MTAP intact/deleted ratio result is recorded as “B (an IC50 ratio greater than or equal to 3 fold but lower than 10 fold)”.
For the compound `Cc1cc(NC(=O)C(=O)N2C[C@@H](C)CC[C@@H]2c2ccc3sc(-c4nccn4C)nc3c2)cnc1N` [Compound 1186, N-(6-amino-5-methylpyridin-3-yl)-2-((2R,5S)-5-methyl-2-(2-(1-methyl-1H-imidazol-2-yl)benzo[d]thiazol-5-yl)piperidin-1-yl)-2-oxoacetamide], the IC50 in assay [1] (setting [7]) was under 1000 nM; in assay [2] (setting [8]) it was under 100 nM; at PRMT5 [3] (setting [9]) it was under 50 nM; on PRMT5 [4] (setting [10]), under 50 nM; in assay [5] (setting [11]), under 100 nM; at PRMT5 [6] (setting [12]), 50 to 500 nM. In addition, the MTAP intact/deleted ratio entry in assay [2] is given as “A (an IC50 ratio greater than or equal to 10 fold)”.
Turning to `CCc1cc(NC(=O)C(=O)N2C[C@@H](C)CC[C@@H]2c2ccc3sc(C4CC5CCC(C4)N5C)nc3c2)cnc1N` (stereo partly drawn) [Compound 1187, N-(6-amino-5-ethyl-3-pyridyl)-2-[(2R,5S)-5-methyl-2-[2-(8-methyl-8-azabicyclo[3.2.1]octan-3-yl)-1,3-benzothiazol-5-yl]-1-piperidyl]-2-oxo-acetamide], the IC50 in assay [1] (setting [7]) was under 1000 nM; in assay [2] (setting [8]), under 100 nM; on PRMT5 [3] (setting [9]) it was under 50 nM; on PRMT5 [4] (setting [10]), under 50 nM; in assay [5] (setting [11]) it was under 100 nM; at PRMT5 [6] (setting [12]), under 50 nM. In addition, the MTAP intact/deleted ratio entry in assay [2] is recorded as “A (an IC50 ratio greater than or equal to 10 fold)”.
With `CCc1cc(NC(=O)C(=O)N2C[C@@H](C)CC[C@@H]2c2ccc3sc(-c4nccn4C)nc3c2)cnc1N` [Compound 1192, N-(6-amino-5-ethylpyridin-3-yl)-2-((2R,5S)-5-methyl-2-(2-(1-methyl-1H-imidazol-2-yl)benzo[d]thiazol-5-yl)piperidin-1-yl)-2-oxoacetamide], the IC50 in assay [1] (setting [7]) was under 1000 nM; in assay [2] (setting [8]) it was under 100 nM; on PRMT5 [3] (setting [9]), under 50 nM; at PRMT5 [4] (setting [10]), under 50 nM; in assay [5] (setting [11]), 100 to 1000 nM; on PRMT5 [6] (setting [12]), 50 to 500 nM. Besides, the MTAP intact/deleted ratio result in assay [2] is on record as “A (an IC50 ratio greater than or equal to 10 fold)”.
As to `CCc1cc(NC(=O)C(=O)N2C[C@@H](C)CC[C@@H]2c2ccc3sc(-c4ccncc4)nc3c2)cnc1N` [Compound 1194, N-(6-amino-5-ethylpyridin-3-yl)-2-((2R,5S)-5-methyl-2-(2-(pyridin-4-yl)benzo[d]thiazol-5-yl)piperidin-1-yl)-2-oxoacetamide], the IC50 in assay [1] (setting [7]) is under 1000 nM; in assay [2] (setting [8]), under 100 nM; on PRMT5 [3] (setting [9]), under 50 nM; at PRMT5 [4] (setting [10]) it was under 50 nM; in assay [5] (setting [11]) it was 100 to 1000 nM; at PRMT5 [6] (setting [12]) it was 50 to 500 nM. The MTAP intact/deleted ratio result in assay [2] is recorded as “A (an IC50 ratio greater than or equal to 10 fold)”.
On to `CCc1cc(NC(=O)C(=O)N2C[C@@H](C)CC[C@@H]2c2ccc3sc(CCN(C)C4COC4)nc3c2)cnc1N` [Compound 1195, N-(6-amino-5-ethylpyridin-3-yl)-2-((2R,5S)-5-methyl-2-(2-(2-(methyl(oxetan-3-yl)amino)ethyl)benzo[d]thiazol-5-yl)piperidin-1-yl)-2-oxoacetamide], for which the IC50 is under 1000 nM in assay [1] (setting [7]); under 100 nM in assay [2] (setting [8]); under 50 nM on PRMT5 [3] (setting [9]); under 50 nM on PRMT5 [4] (setting [10]); under 100 nM in assay [5] (setting [11]); 50 to 500 nM at PRMT5 [6] (setting [12]). Further, the MTAP intact/deleted ratio result in assay [2] is recorded as “A (an IC50 ratio greater than or equal to 10 fold)”.
Consider `CCc1cc(NC(=O)C(=O)N2C[C@@H](C)CC[C@@H]2c2ccc3sc(C[C@@H](C)N(C)C)nc3c2)cnc1N` [Compound 1198, N-(6-amino-5-ethylpyridin-3-yl)-2-((2R,5S)-2-(2-((R)-2-(dimethylamino)propyl)benzo[d]thiazol-5-yl)-5-methylpiperidin-1-yl)-2-oxoacetamide], for which the IC50 in assay [1] (setting [7]) is under 1000 nM; in assay [2] (setting [8]), under 100 nM; on PRMT5 [3] (setting [9]) it was under 50 nM; on PRMT5 [4] (setting [10]), under 50 nM; in assay [5] (setting [11]) it was under 100 nM; on PRMT5 [6] (setting [12]), 50 to 500 nM. Besides, in assay [2], the MTAP intact/deleted ratio result is “A (an IC50 ratio greater than or equal to 10 fold)”.
For the compound `CCc1cc(NC(=O)C(=O)N2C[C@@H](C)CC[C@@H]2c2ccc3cn(C)nc3c2)cnc1N` [Compound 1199, N-(6-amino-5-ethyl-3-pyridyl)-2-[(5S)-5-methyl-2-(2-methylindazol-6-yl)-1-piperidyl]-2-oxo-acetamide], the IC50 is under 1000 nM in assay [1] (setting [7]); under 100 nM in assay [2] (setting [8]); under 50 nM at PRMT5 [3] (setting [9]); under 50 nM at PRMT5 [4] (setting [10]); 100 to 1000 nM in assay [5] (setting [11]); 50 to 500 nM on PRMT5 [6] (setting [12]). Further, the MTAP intact/deleted ratio result in assay [2] was “A (an IC50 ratio greater than or equal to 10 fold)”.
